Results on 2 molecules are retold here after patent US20240327364A1, “THERAPEUTIC TARGETING OF GPR68 TO INDUCE FERROPTOSIS” (University Of Maryland, Baltimore, priority 2023, published 2024).

The target of one assay is T1, CDK5 (Homo sapiens, UniProt Q00535).
T1 construct: purchased DiscoveRx (KinomeScan service)
Kind of assay: KinomeScan. The conditions noted are these: read-out: % Control. It is filed as binding.

The next assay has as its target T2, CAMK2D (Homo sapiens, UniProt Q13557).
T2 construct: purchased DiscoveRx (KinomeScan service)
Kind of assay: KinomeScan. It is filed as binding. The conditions noted are these: read-out: % Control.

Assay [1] deals with T3, JAK3(JH1domain-catalytic) (Homo sapiens, UniProt P52333).
T3 construct: JAK3(JH1domain-catalytic); purchased DiscoveRx (Fremont, CA)
As to the kind of experiment: KinomeScan. It is filed as binding. The conditions noted are these: read-out: % Control.

For another assay, the target named is T4, YSK1 (Homo sapiens, UniProt O00506).
T4 construct: purchased DiscoveRx
As to the kind of experiment: KinomeScan. It counts as binding. The conditions noted are these: read-out: % Control.

A further assay has as its target T5, PIK3C2B (Homo sapiens, UniProt O00750).
T5 construct: purchased DiscoveRx (Fremont, CA)
Kind of assay: KinomeScan. It is filed as binding. Particulars: read-out: % Control.

The next assay deals with T6, GCN2(Kin.Dom.2, S808G) (Homo sapiens, UniProt Q9P2K8, S808G).
T6 construct: GCN2(Kin.Dom.2, S808G); purchased DiscoveRx (Fremont, CA)
Kind of assay: KinomeScan. It is filed as binding. The conditions noted are these: read-out: % Control.

For the next assay, the target named is T7, CDK4-cyclinD1 (Homo sapiens, UniProt P11802).
T7 construct: purchased DiscoveRx (KinomeScan service)
As to the kind of experiment: KinomeScan. The conditions noted are these: read-out: % Control. It counts as binding.

Another assay concerns the target T8, DYRK2 (Homo sapiens, UniProt Q92630).
T8 construct: purchased DiscoveRx (Fremont, CA), KinomeScan service
As to the kind of experiment: KinomeScan. It is filed as binding. The conditions noted are these: read-out: % Control.

For a further assay, the target named is T9, CCR9 (Homo sapiens, UniProt P51686).
T9 construct: host or cells: Chem-1 cells with Gα15
Kind of assay: GPCR Profiler. It counts as cell-based.

The target in another assay is T10, SYK (Homo sapiens, UniProt P43405).
T10 construct: purchased DiscoveRx (Fremont, CA)
Kind of assay: KinomeScan. It is filed as binding. Particulars: read-out: % Control.

Another assay deals with T11, A2B (Homo sapiens, UniProt P29275).
T11 construct: host or cells: Chem-1 cells with promiscuous Gα15
As to the kind of experiment: GPCR Profiler. It counts as cell-based.

The target of a further assay is T12, TSH (Homo sapiens, UniProt P16473).
T12 construct: host or cells: Chem-1 cells with Gα15
Kind of assay: GPCR Profiler. It is filed as cell-based.

For another assay, the target named is T13, FPR2 (Homo sapiens, UniProt P25090).
T13 construct: host or cells: Chem-1 cells expressing Gα15
As to the kind of experiment: GPCR Profiler. It counts as cell-based.

In another assay the target is T14, Y4 (Homo sapiens, UniProt P50391).
T14 construct: host or cells: Chem-1 cells expressing Galpha15
As to the kind of experiment: GPCR Profiler. It is filed as cell-based.

For a further assay, the target named is T15, VPAC2 (Homo sapiens, UniProt P41587).
T15 construct: host or cells: Chem-1 cells expressing Galpha15
As to the kind of experiment: GPCR Profiler. It is filed as cell-based.

For another assay, the target named is T16, KIT(A829P) (Homo sapiens, UniProt P10721, A829P).
T16 construct: purchased DiscoveRx
As to the kind of experiment: KinomeScan. It counts as binding. Particulars: read-out: % Control.

For the next assay, the target named is T17, SLK (Homo sapiens, UniProt Q9H2G2).
T17 construct: purchased DiscoveRx (Fremont, CA)
As to the kind of experiment: KinomeScan. It is filed as binding. Particulars: read-out: % Control.

For another assay, the target named is T18, CDK2 (Homo sapiens, UniProt P24941).
T18 construct: purchased DiscoveRx (KinomeScan service)
Kind of assay: KinomeScan. It counts as binding. Particulars: read-out: % Control.

A further assay has as its target T19, FPR1 (Homo sapiens, UniProt P21462).
T19 construct: host or cells: Chem-1 cells expressing Gα15
Kind of assay: GPCR Profiler. It counts as cell-based.

In a further assay the target is T20, PIK3CA(E542K) (Homo sapiens, UniProt P42336, E542K).
T20 construct: purchased DiscoveRx (Fremont, CA)
Kind of assay: KinomeScan. Particulars: read-out: % Control. It counts as binding.

A further assay concerns the target T21, H2 (Homo sapiens, UniProt P25021).
T21 construct: host or cells: Chem-1 cells with promiscuous Gα15
Kind of assay: GPCR Profiler. It counts as cell-based.

The next assay deals with T22, sst2 (Homo sapiens, UniProt P30874).
T22 construct: host or cells: Chem-1 cells with Gα15
As to the kind of experiment: GPCR Profiler. It counts as cell-based.

The target in another assay is T23, C3aR (Homo sapiens, UniProt Q16581).
T23 construct: host or cells: Chem-1 cells with promiscuous Gα15
Kind of assay: GPCR Profiler. It is filed as cell-based.

Another assay has as its target T24, BB2 (Homo sapiens, UniProt P30550).
T24 construct: host or cells: Chem-1 cells with promiscuous Gα15
Kind of assay: GPCR Profiler. It is filed as cell-based.

The next assay addresses T25, 5-HT2C (Homo sapiens, UniProt P28335).
T25 construct: host or cells: Chem-1 cells with promiscuous Gα15
Kind of assay: GPCR Profiler. It is filed as cell-based.

The next assay concerns A549. As to the kind of experiment: Crystal violet viability, 24 hours. It counts as cell-based. The procedure:
A549 lung cancer cells were plated at different concentrations of cell per well in a 96-well plate. On the following day cells were treated with increasing doses of OGM2. Twenty-four hours later cells viability was assayed with crystal violet and normalized to untreated.

Assay [2] concerns 6 independent patient derived lines (PDX and Neurospheres). As to the kind of experiment: 2D monolayer viability (Cell Titer-Glo). It counts as cell-based. Particulars: Homo sapiens; range over the 6 lines; read-out: LC50 (the source's name). As to the method:
GBM neurospheres and low passage PDX models were plated in 96-well plates at 10,000 cells per well in 50 μL of neural stem cell media. The next day, the cells were treated with OGM2 compounds at the indicated concentrations, in triplicates, by adding an equal volume of medium containing 2× the final concentration of compound. Following 72 hours incubation under standard cell culture conditions, relative cell number was assessed using Cell Titer-Glo Luminescent Cell Viability Assay (Promega™) following the manufacturer's instructions. Luminescence was determined using a Cytation 5 reader and Gen5 software package (BioTek™). For U87 and U138 cell lines, one thousand cells were plated per well in a standard 96-well plate and allowed to attach for 24 hours before exposure to concentrations of vehicle, OGM2, or TMZ. Cells were treated for 72 hours and then stained with DAPI. A 10× magnification lens on a LionheartFX (BioTek™) was used to image the wells, and images were stitched together with Gen5 software (BioTek™). Automated nuclei counting was also done using the Gen5 software. Results reported as percent response relative to DMSO control. IC50 (the concentration causing 50% inhibition) was determined by GraphPad Prism™ version 6.07.
See FIG. 56, FIG. 55E, and FIG. 55F. […] Similarly.
For orientation: Cellular ATP, detected with luciferase, serves as a proxy for viable cell number.

T15 sequence (P41587 24-438): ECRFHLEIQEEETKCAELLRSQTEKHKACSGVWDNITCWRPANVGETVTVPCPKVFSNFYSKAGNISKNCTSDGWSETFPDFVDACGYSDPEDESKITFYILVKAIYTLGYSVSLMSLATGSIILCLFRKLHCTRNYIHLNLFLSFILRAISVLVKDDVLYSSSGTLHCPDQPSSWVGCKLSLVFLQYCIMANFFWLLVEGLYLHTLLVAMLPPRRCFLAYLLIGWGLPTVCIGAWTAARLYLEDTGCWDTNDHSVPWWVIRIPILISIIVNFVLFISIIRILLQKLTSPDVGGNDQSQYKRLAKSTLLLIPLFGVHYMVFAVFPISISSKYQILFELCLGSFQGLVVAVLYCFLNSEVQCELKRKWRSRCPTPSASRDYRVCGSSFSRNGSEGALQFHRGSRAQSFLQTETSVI
T21 sequence (P25021 whole entry): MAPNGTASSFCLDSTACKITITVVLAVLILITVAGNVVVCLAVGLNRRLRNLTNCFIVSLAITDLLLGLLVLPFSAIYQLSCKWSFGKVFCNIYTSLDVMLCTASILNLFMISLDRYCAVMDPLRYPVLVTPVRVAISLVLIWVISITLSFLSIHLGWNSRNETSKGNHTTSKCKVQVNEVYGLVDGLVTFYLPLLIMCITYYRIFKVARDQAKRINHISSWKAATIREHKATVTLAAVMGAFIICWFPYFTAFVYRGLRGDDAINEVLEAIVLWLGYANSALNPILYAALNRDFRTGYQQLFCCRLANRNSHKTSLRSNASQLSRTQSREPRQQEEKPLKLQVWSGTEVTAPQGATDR
T13 sequence (P25090 whole entry): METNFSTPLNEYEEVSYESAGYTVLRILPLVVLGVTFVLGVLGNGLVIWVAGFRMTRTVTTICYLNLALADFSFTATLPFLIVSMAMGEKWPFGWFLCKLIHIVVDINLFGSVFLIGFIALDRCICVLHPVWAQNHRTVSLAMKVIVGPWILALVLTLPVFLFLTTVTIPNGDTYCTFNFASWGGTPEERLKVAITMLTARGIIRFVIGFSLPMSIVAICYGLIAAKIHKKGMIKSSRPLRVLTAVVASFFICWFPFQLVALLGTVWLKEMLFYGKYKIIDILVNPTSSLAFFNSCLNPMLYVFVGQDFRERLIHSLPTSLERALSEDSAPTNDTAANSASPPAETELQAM
T14 sequence (P50391 whole entry): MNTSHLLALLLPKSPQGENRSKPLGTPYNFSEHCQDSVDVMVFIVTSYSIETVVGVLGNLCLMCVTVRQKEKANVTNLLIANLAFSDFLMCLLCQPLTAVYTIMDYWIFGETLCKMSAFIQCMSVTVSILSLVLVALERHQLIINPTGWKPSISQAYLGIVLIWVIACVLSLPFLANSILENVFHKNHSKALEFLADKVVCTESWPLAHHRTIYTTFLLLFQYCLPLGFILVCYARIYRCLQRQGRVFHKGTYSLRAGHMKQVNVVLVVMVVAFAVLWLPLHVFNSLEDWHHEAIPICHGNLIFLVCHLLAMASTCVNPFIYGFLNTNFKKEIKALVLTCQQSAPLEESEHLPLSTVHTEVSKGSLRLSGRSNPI
T22 sequence (P30874 whole entry, species assumed): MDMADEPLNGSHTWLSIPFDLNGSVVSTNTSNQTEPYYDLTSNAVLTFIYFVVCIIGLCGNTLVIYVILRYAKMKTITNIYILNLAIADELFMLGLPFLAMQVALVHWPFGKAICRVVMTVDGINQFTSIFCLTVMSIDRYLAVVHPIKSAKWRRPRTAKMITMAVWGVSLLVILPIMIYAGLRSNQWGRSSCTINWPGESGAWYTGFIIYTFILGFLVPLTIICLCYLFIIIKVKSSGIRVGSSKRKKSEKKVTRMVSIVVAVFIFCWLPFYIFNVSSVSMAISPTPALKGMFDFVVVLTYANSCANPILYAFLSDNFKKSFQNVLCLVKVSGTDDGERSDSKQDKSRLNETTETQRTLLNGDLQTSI
T25 sequence (P28335 33-458): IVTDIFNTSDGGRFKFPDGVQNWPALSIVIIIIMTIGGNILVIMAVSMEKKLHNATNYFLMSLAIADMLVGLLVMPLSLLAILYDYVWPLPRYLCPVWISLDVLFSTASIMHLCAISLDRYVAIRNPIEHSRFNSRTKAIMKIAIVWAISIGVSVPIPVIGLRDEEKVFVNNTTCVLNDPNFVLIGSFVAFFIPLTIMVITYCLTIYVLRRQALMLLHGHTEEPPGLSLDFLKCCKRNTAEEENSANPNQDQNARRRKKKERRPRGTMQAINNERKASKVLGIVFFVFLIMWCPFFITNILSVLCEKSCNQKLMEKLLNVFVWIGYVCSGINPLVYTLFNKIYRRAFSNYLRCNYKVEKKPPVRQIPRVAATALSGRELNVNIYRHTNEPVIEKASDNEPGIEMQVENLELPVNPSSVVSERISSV
T23 sequence (Q16581 whole entry, species assumed): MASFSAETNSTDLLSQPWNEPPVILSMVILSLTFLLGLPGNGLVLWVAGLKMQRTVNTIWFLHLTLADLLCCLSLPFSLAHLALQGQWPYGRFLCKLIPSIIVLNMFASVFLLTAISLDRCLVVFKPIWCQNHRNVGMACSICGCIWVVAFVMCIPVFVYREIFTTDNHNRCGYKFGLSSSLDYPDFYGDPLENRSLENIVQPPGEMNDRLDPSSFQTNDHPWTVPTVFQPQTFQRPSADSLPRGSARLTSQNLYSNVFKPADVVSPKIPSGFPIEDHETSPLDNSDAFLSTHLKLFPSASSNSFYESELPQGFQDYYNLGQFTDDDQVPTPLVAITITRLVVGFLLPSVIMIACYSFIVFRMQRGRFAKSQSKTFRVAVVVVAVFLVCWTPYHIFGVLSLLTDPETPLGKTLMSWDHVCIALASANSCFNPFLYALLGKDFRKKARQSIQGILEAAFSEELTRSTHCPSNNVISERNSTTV
T12 sequence (P16473 21-764): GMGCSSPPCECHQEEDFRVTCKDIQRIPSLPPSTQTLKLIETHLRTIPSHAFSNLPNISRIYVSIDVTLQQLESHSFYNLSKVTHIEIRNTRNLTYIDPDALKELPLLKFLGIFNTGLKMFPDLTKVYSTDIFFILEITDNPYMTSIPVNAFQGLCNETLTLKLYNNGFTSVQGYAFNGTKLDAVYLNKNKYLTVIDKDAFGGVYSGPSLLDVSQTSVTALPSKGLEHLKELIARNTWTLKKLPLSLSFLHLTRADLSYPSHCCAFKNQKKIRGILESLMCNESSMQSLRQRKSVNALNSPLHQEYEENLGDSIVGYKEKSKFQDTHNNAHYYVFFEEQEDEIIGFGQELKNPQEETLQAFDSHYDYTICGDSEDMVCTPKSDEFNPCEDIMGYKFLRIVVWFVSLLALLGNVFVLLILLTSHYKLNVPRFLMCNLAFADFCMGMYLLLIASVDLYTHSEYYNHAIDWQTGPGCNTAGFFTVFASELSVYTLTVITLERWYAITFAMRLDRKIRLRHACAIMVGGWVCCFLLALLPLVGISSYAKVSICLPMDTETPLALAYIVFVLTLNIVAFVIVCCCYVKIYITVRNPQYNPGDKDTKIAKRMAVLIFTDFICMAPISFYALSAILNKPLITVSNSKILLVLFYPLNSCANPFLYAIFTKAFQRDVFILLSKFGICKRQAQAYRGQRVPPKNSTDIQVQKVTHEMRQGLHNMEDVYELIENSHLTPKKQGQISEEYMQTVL
T9 sequence (P51686 whole entry, species assumed): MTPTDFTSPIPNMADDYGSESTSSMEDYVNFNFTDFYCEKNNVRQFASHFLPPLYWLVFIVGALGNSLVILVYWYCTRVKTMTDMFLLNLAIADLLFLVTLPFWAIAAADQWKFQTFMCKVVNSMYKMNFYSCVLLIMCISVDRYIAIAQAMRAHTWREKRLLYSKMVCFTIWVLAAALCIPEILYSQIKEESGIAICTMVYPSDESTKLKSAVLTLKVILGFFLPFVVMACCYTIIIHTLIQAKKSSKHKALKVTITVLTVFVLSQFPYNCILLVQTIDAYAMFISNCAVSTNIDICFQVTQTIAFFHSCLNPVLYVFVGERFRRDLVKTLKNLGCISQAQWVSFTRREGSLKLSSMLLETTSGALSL
T24 sequence (P30550 whole entry): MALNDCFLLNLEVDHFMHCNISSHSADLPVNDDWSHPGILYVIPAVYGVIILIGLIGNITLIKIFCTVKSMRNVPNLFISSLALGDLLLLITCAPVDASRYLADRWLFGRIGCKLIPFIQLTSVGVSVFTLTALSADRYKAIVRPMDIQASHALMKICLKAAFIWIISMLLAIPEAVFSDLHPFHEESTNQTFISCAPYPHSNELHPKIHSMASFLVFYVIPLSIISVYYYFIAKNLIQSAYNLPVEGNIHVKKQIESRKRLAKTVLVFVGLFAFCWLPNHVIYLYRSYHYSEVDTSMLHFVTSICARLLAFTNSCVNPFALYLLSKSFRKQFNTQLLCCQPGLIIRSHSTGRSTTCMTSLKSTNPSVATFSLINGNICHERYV
T19 sequence (P21462 whole entry): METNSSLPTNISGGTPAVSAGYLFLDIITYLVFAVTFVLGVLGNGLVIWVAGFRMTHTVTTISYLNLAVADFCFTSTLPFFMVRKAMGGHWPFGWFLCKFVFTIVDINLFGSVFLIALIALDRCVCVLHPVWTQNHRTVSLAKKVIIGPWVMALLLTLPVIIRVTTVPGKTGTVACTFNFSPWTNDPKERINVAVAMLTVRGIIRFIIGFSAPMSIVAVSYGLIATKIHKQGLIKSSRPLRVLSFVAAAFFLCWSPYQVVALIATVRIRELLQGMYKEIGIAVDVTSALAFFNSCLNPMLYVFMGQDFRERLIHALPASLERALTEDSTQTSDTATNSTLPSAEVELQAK
T3 sequence (P52333 822-1111 limits assumed): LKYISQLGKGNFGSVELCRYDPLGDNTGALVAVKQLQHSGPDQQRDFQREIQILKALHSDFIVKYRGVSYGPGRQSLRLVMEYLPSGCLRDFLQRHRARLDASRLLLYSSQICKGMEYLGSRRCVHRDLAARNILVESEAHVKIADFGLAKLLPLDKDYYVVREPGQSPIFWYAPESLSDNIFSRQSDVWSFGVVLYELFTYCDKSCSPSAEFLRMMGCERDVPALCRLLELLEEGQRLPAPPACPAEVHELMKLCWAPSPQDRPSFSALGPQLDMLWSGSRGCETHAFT

Regarding `CCc1ccc2c(c1)C1(NN=C(c3cccc4ccccc34)S1)C(=O)N2` (stereo not drawn) [OGM1, 5-ethyl-5′-naphthalen-1-ylspiro[1H-indole-3,2′-3H-1,3,4-thiadiazole]-2-one], the remaining binding at 10 µM on CDK5 is 100%; on CAMK2D, 91%; in [1], 84%; at YSK1 it was 80%; on PIK3C2B, 95%; on GCN2(Kin.Dom.2, S808G) it was 100%. For the same molecule, the remaining binding at 10 µM at CDK4-cyclinD1 turned out to be 69%; on DYRK2, 91%; at SYK, 98%; on KIT(A829P), 72%; at SLK, 90%; on CDK2 it was 100%. Further, the remaining binding at 10 µM at PIK3CA(E542K) stood at 73%. The Antagonism at CCR9 (10 uM) is given as 0.6; on A2B (10 uM), −12.8; at TSH (10 uM), 5.9; on FPR2 (10 uM), 23; on Y4 (10 uM), −5.5; on VPAC2 (10 uM) it was 6.9. Moreover, the Antagonism is recorded as 14.3 at FPR1 (10 uM); 1.3 on H2 (10 uM); −1 on sst2 (10 uM); 5.4 at C3aR (10 uM); 0 on BB2 (10 uM); −10.9 on 5-HT2C (10 uM). Besides, the Agonism on CCR9 (12.5 uM) was 0.4; at A2B (12.5 uM), 4.4; on TSH (12.5 uM) it was −0.1; at FPR2 (12.5 uM) it was −0.4; at Y4 (12.5 uM), −0.2; at VPAC2 (12.5 uM) it was 10.7. The Agonism on FPR1 (12.5 uM) is given as −0.2; at H2 (12.5 uM) it was 0.1; at sst2 (12.5 uM) it was −0.2; at C3aR (12.5 uM), 0.2; on BB2 (12.5 uM) it was −0.2; on 5-HT2C (12.5 uM) it was 2.2.

Consider `CCc1ccc2c(c1)C1(NN=C(c3ccccc3)S1)C(=O)N2` (stereo not drawn) [OGM2], for which, in the assay on A549, the toxicity result is reported as “relatively High doses of OGM2 are necessary for toxicity in A549 cells”. In addition, in assay [2], the CC50 fell in the range of 420 to 2700 nM.
